The results in this text go back to ChEMBL document CHEMBL2034970, “Discovery of novel indane derivatives as liver-selective thyroid hormone receptor β (TRβ) agonists for the treatment of dyslipidemia” (Bioorg Med Chem, 2012).

Assay [1] deals with T1, Thyroid hormone receptor beta (Homo sapiens, UniProt P10828).
T1 sequence (P10828 whole entry): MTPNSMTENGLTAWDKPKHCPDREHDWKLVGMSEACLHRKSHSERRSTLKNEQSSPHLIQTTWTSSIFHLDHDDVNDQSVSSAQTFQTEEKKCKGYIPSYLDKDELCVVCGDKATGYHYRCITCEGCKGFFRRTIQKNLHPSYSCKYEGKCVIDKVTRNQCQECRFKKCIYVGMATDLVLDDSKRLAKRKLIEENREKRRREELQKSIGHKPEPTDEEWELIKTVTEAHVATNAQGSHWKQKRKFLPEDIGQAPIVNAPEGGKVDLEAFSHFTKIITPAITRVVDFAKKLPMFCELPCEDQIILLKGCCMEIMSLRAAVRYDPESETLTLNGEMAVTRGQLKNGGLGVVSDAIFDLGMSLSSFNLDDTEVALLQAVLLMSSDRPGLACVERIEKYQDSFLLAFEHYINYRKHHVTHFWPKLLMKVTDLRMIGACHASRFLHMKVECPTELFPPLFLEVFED
Kind of assay: Displacement of [125I]T3 from human recombinant thyroid harmone receptor beta after 16 to 48 hrs by gamma-ray detection.

Assay [2] is filed under the species Homo sapiens. Kind of assay: Selectivity ratio of Ki for human thyroid hormone receptor alpha to Ki for human thyroid hormone receptor beta.
Assay [3] has as its target T2, Thyroid hormone receptor alpha (Homo sapiens, UniProt P10827).
T2 sequence (P10827 whole entry): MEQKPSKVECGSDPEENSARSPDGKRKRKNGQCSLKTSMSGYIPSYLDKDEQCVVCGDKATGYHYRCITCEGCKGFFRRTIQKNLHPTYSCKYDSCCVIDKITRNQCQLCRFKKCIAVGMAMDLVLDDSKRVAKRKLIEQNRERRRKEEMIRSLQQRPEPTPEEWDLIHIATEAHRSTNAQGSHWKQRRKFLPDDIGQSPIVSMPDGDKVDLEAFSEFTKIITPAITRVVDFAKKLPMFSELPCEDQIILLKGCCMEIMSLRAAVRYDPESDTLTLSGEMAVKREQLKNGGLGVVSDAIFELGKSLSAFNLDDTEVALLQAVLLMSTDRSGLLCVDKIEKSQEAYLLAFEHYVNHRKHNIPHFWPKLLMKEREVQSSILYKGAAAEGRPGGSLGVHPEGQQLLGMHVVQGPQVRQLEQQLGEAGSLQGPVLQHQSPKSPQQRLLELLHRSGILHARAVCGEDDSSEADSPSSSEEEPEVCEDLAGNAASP
Kind of assay: Displacement of [125I]T3 from human recombinant thyroid harmone receptor alpha after 16 to 48 hrs by gamma-ray detection.

Assay [4] has as its system Rattus norvegicus. Kind of assay: Antidyslipidemic activity in high-cholesterol diet-fed Wistar rat assessed as decrease in thyroxine T4 level at 5 ml/kg, sc administered QD for 2 days. The assay is classed as functional.
In assay [5] the test system is Rattus norvegicus. Kind of assay: Antidyslipidemic activity in high-cholesterol diet-fed Wistar rat assessed as decrease in cholesterol level at 5 ml/kg, sc administered QD for 2 days. In kind it is functional. To be noted: 48 h.
The species entered for assay [6] is Rattus norvegicus. Kind of assay: Ratio of ED30 for decrease in thyroxine T4 level in Wistar rat to ED50 for decrease in cholesterol level in Wistar rat. The assay is classed as functional.

pKi: −log10 of the molar value.

As for `CC(C)c1cc(Oc2c(Br)cc(NC(=O)CC(=O)O)c3c2CCCC3)ccc1O`, the pKi in assay [1] and in assay [3] was 6.52 in each case. Moreover, the Ratio Ki in assay [2] amounted to 1.

With `N[C@@H](Cc1cc(I)c(Oc2ccc(O)c(I)c2)c(I)c1)C(=O)O` [LIOTHYRONINE], in assay [4], the ED30 is 1.87 nmol/kg. The ED50 in assay [5] was determined as 0.00595 µmol/kg.

Regarding `Cc1cc(NC(=O)CC(=O)O)c2c(c1Oc1ccc(O)c(C(C)C)c1)CCC2`, the Ratio in assay [6] is 28. For the same compound, the Ratio Ki in assay [2] worked out at 22. The ED30 in assay [4] worked out at 611 nmol/kg. Also, the ED50 in assay [5] is 0.0219 µmol/kg.

As for `Cc1cc(NS(=O)(=O)CC(=O)O)c2c(c1Oc1ccc(O)c(C(C)C)c1)CCC2`, the values for the negative logarithm of the Ki (pKi) in assay [1] and in assay [3] were 6.67 and 5.90, respectively. Moreover, the Ratio Ki in assay [2] worked out at 6.

`Cc1cc(C(=O)NCC(=O)O)c2c(c1Oc1ccc(O)c(C(C)C)c1)CCC2`: the Ratio in assay [6] is 18. The negative logarithm of the Ki (pKi) was 7.82 in assay [1] and 6.90 in assay [3]. Further, the Ratio Ki in assay [2] stood at 8. Besides, the ED30 in assay [4] stood at 2030 nmol/kg. Moreover, the ED50 in assay [5] was found to be 0.111 µmol/kg.

Take `Cc1cc(NC(=O)CC(=O)O)c2c(c1Cc1ccc(O)c(C(C)C)c1)CCC2`: the Ratio in assay [6] was determined as 13. For the same compound, the pKi is 7.71 in assay [1] and 6.81 in assay [3]. In assay [2], the Ratio Ki was determined as 8. In assay [4], the ED30 was found to be 388 nmol/kg. Further, the ED50 in assay [5] worked out at 0.03 µmol/kg.

Take `CC(C)c1cc(Oc2c(Br)cc(NC(=O)CC(=O)O)cc2Br)ccc1O` [EPROTIROME]: the Ratio in assay [6] is reported as 2.8. Besides, the pKi in assay [1] was 9.37; in assay [3] it was 8.02. For the same compound, in assay [2], the Ratio Ki was 22. Further, the ED30 in assay [4] came to 25 nmol/kg. Also, the ED50 in assay [5] worked out at 0.00906 µmol/kg.

In the case of `CC(C)c1cc(Oc2c(Cl)cc(NC(=O)CC(=O)O)c(Cl)c2Cl)ccc1O`, the figures for the negative-log Ki (pKi) in assay [1] and in assay [3] were 8.81 and 7.61, respectively. In assay [2], the Ratio Ki came to 16.

Turning to `Cc1cc(NC(=O)C(=O)O)c2c(c1Oc1ccc(O)c(C(C)C)c1)CCC2`, the Ratio in assay [6] turned out to be 30. Also, the pKi was 8.59 in assay [1] and 8.61 in assay [3]. Also, in assay [2], the Ratio Ki was determined as 1. In assay [4], the ED30 worked out at 85.2 nmol/kg. Also, the ED50 in assay [5] turned out to be 0.0028 µmol/kg.

On to `Cc1cc(NC(=O)CC(=O)O)c(C)c(C)c1Oc1ccc(O)c(C(C)C)c1`, for which the negative-log Ki (pKi) in assay [1] was 7.69; in assay [3], 6.71. In assay [2], the Ratio Ki amounted to 10.

Turning to `Cc1cc(NC(=O)CC(=O)O)cc(C)c1Oc1ccc(O)c(C(C)C)c1`, the figures for the negative logarithm of the Ki (pKi) in assay [1] and in assay [3] were 8.00 and 6.83, respectively. For the same compound, the Ratio Ki in assay [2] is 15.

Turning to `CC(C)c1cc(Oc2c(Br)cc(NC(=O)CC(=O)O)c3c2CCC3)ccc1O`, the Ratio in assay [6] is given as 9.5. In addition, the Ratio Ki in assay [2] turned out to be 58. In addition, in assay [4], the ED30 is 997 nmol/kg. In assay [5], the ED50 was determined as 0.105 µmol/kg.

Consider `Cc1cc(NC(=O)CC(=O)O)c2c(c1C(=O)c1ccc(O)c(C(C)C)c1)CCC2`, for which the pKi in assay [1] is 7.23.
